≈ marks a conversion by molar mass, not a printed value. Read-outs that look alike come from different tables or passages of the source.
Tests used:
[1] = system: S. aureus ATCC 9144; assay: MIC, microdilution method (9.1); format: cell-based, Staphylococcus aureus
How it was run: (§1)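 MIC read from two-fold dilution series (0.50-128 mg/L final) in Mueller Hinton broth, following the CLSI M07-A8 microdilution procedure. Inoculum was 5×10^5 CFU/ml final, with incubation at 37° C. under ambient air.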

[2] = system: S. aureus ATCC 29213; assay: MIC, microdilution method (9.1); format: cell-based, Staphylococcus aureus
How it was run: as §1

[3] = system: S. aureus CIP 103428; assay: MIC, microdilution method (9.1); format: cell-based, Staphylococcus aureus
How it was run: as §1

[4] = system: S. aureus ATCC 25923; assay: MIC, microdilution method (9.1); format: cell-based, Staphylococcus aureus
How it was run: as §1

[5] = system: S. aureus ATCC 106414 (VISA); assay: MIC, microdilution method (9.1); format: cell-based, Staphylococcus aureus; conditions: read after 18 h
How it was run: as §1

[6] = system: S. aureus ATCC 33592 (MRSA); assay: MIC, microdilution method (9.1); format: cell-based, Staphylococcus aureus; conditions: read after 18 h
How it was run: as §1

[7] = system: S. aureus CIP 65.6; assay: MIC, microdilution method (9.1); format: cell-based, Staphylococcus aureus
How it was run: as §1

[8] = system: S. aureus ATCC 6538; assay: MIC, microdilution method (9.1); format: cell-based, Staphylococcus aureus
How it was run: as §1

[9] = system: S. aureus SA-1199B; assay: MIC, microdilution method (9.1); format: cell-based, Staphylococcus aureus
How it was run: as §1

[10] = system: S. aureus CIP 65.25 (MRSA); assay: MIC, microdilution method (9.1); format: cell-based, Staphylococcus aureus; conditions: read after 18 h
How it was run: as §1

[11] = system: S. epidermidis ATCC 12228; assay: MIC, microdilution method (9.1); format: cell-based, Staphylococcus epidermidis
How it was run: as §1

[12] = system: S. epidermidis CIP 81.55; assay: MIC, microdilution method (9.1); format: cell-based, Staphylococcus epidermidis
How it was run: as §1

[13] = system: S. epidermidis CIP 103627; assay: MIC, microdilution method (9.1); format: cell-based, Staphylococcus epidermidis
How it was run: as §1

[14] = system: S. mitis CIP 103335; assay: MIC, microdilution method (9.1); format: cell-based, Streptococcus mitis
How it was run: as §1

[15] = system: 29 bacterial strains belonging to 17 different species; assay: MIC determination, overall statements on the bacterial panel; format: cell-based; conditions: summary of MIC results
Protocol: The microdilution method recommended by the Clinical and Laboratory Standard Institute [M07-A8, Vol. 29, No. 2] was used. The activity of indolic compounds was tested against 29 bacterial strains belonging to 17 different species and 12 different genera (Staphylococcus, Streptococcus, Enterococcus, Listeria, Bacillus, Haemophilus, Escherichia, Klebsiella, Enterobacter, Serratia, Pseudomonas, and Acinetobacter). Bacterial inocula were prepared in Mueller Hinton broth (MH2, bioMérieux, Marcy L'Etoile, France), supplemented with 10% sheep blood for fastidious species (i.e., Streptococcus pneumoniae and Haemophilus influenzae). They were dispensed in 96 well microtiter plates (5×10^5 CFU/ml of final inoculum). Indolic compounds were added to the wells as to obtain two-fold serial concentrations (0.50-128 mg/L of final concentrations). Plates were incubated at 37° C. in ambient air, or at 37° C. in 5% CO2 enriched atmosphere for fastidious species. […] Drug-free cultures served as growth controls. Cultures receiving gentamicin, ciprofloxacin or cefotaxime served as positive controls.

[16] = system: S. pyogenes (group A) CIP 104226; assay: MIC, microdilution method (9.1); format: cell-based, Streptococcus pyogenes
How it was run: as §1

[17] = system: S. agalactiae (group B) ATCC 12400; assay: MIC, microdilution method (9.1); format: cell-based, Streptococcus agalactiae
How it was run: as §1

[18] = system: E. faecalis ATCC 29212; assay: MIC, microdilution method (9.1); format: cell-based, Enterococcus faecalis
How it was run: as §1

[19] = system: S. pneumoniae ATCC 6303; assay: MIC, microdilution method (9.1); format: cell-based, Streptococcus pneumoniae; conditions: 5% CO2, 18 h
How it was run: (§2)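 CLSI broth microdilution in Mueller Hinton broth, final inoculum 5×10^5 CFU/ml, with two-fold compound dilutions (0.50-128 mg/L final). Incubation at 37° C in ambient air, or 5% CO2 with 10% sheep blood for fastidious species.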

[20] = system: E. faecium CIP 54.32; assay: MIC, microdilution method (9.1); format: cell-based, Enterococcus faecium
How it was run: as §1

[21] = system: Listeria innocua CIP 80.11; assay: MIC, microdilution method (9.1); format: cell-based
How it was run: as §1

[22] = system: Bacillus subtilis CIP 5262; assay: MIC, microdilution method (9.1); format: cell-based
How it was run: as §1

[23] = system: Klebsiella pneumoniae API ATCC 35657; assay: MIC, microdilution method (9.1); format: cell-based
How it was run: as §1

[24] = system: Acinetobacter baumanii ATCC 19606; assay: MIC, microdilution method (9.1); format: cell-based
How it was run: as §1

[25] = system: Pseudomonas aeruginosa CIP 5933; assay: MIC, microdilution method (9.1); format: cell-based
How it was run: as §1

[26] = system: Haemophilus influenzae ATCC 49766; assay: MIC, microdilution method (9.1); format: cell-based
How it was run: as §2

[27] = system: Enterobacter cloacae ATCC13047; assay: MIC, microdilution method (9.1); format: cell-based; conditions: 18 h
How it was run: as §1

[28] = system: Escherichia coli ATCC 25922; assay: MIC, microdilution method (9.1); format: cell-based; conditions: ATCC25922, 18 h
How it was run: as §1

[29] = system: Serratia marcescens CIP 103551; assay: MIC, microdilution method (9.1); format: cell-based; conditions: CIP103551, 18 h
How it was run: as §1

[30] = system: S. pneumoniae ATCC 49619; assay: MIC, microdilution method (9.1); format: cell-based; conditions: Streptococcus pneumoniae, ATCC49619, 10% sheep blood, 5% CO2, 18 h
How it was run: as §2

[31] = Staphylococcus aureus, ATCC9144, read after 18 h, read-out: MIC
[32] = Staphylococcus aureus, ATCC29213, read after 18 h, read-out: MIC
[33] = Staphylococcus aureus, CIP103428, read after 18 h, read-out: MIC
[34] = Staphylococcus aureus, ATCC25923, read after 18 h, read-out: MIC
[35] = Staphylococcus aureus, read-out: MIC
[36] = Staphylococcus aureus, CIP65, read after 18 h, read-out: MIC
[37] = Staphylococcus aureus, ATCC6538, read after 18 h, read-out: MIC
[38] = Staphylococcus aureus, SA1199B, 18 h
[39] = Staphylococcus epidermidis, ATCC12228, read after 18 h, read-out: MIC
[40] = Staphylococcus epidermidis, CIP81, read after 18 h, read-out: MIC
[41] = Staphylococcus epidermidis, CIP103627, read after 18 h, read-out: MIC
[42] = Streptococcus mitis, CIP103335, 18 h, read-out: MIC
[43] = Streptococcus pyogenes, CIP104226, 18 h, read-out: MIC
[44] = Streptococcus agalactiae, ATCC12400, 18 h, read-out: MIC
[45] = Enterococcus faecalis, ATCC29212, 18 h, read-out: MIC
[46] = Streptococcus pneumoniae, ATCC6303, 10% sheep blood, read-out: MIC
[47] = Enterococcus faecium, CIP54, 18 h, read-out: MIC
[48] = Acinetobacter baumannii, ATCC19606, 18 h, read-out: MIC

## tert-Butyl (2-(p-bromo)benzamido-2-(5-bromo-1H-indol-3-yl)ethyl)carbamate [Compound 8a]
[1]; read after 18 h
  MIC: >32 µg/mL
[2]; read after 18 h
  MIC: >32 µg/mL
[3]; read after 18 h
  MIC: >32 µg/mL
[4]; read after 18 h
  MIC: >128(>32) mg/L
[5]
  MIC: >32 µg/mL
[6]
  MIC: >32 µg/mL
[7]; read after 18 h
  MIC: >32 µg/mL
[8]; read after 18 h
  MIC: >32 µg/mL
[9]; S. aureus SA-1199B, read after 18 h
  MIC: >32 µg/mL
[10]
  MIC: >32 µg/mL
[11]; read after 18 h
  MIC: >32 µg/mL
[12]; read after 18 h
  MIC: >32 µg/mL
[13]; read after 18 h
  MIC: >32 µg/mL
[14]; 18 h
  MIC: >128 µg/mL
[15]
  intrinsic antibacterial activity (in words): lack of intrinsic antibacterial activity
[16]; 18 h
  MIC: >128 µg/mL
[17]; 18 h
  MIC: 64 µg/mL
[18]; 18 h
  MIC: >128 µg/mL
[19]; 10% sheep blood
  MIC: 128 µg/mL
[20]; 18 h
  MIC: >128 µg/mL
[21]; 18 h
  MIC: >128 µg/mL
[22]; 18 h
  MIC: >128 µg/mL
[23]; 18 h
  MIC: 64 µg/mL
[24]; 18 h
  MIC: >128(>32) mg/L
[25]; 18 h
  MIC: >128(>32) mg/L

## CC(C)(C)OC(=O)NCC(NC(=O)C(F)(F)F)c1c[nH]c2ccc(Br)cc12 (stereo not shown) [Compound 9, tert-Butyl (2-(5-bromo-1H-indol-3-yl)-2-(2,2,2-trifluoroacetamido)ethyl)carbamate]
[1]; [31]
  MIC: > 128 µg/mL
[2]; [32]
  MIC: 64 µg/mL (≈ 142 µM)
[3]; [33]
  MIC: 128 µg/mL (≈ 284 µM)
[4]; [34]
  MIC: > 128 µg/mL
[5]; [35]
  MIC: 128 µg/mL (≈ 284 µM)
[6]; [35]
  MIC: 128 µg/mL (≈ 284 µM)
[7]; [36]
  MIC: 128 µg/mL (≈ 284 µM)
[8]; [37]
  MIC: 128 µg/mL (≈ 284 µM)
[9]; [38]
  MIC: 128 µg/mL (≈ 284 µM)
[10]; [35]
  MIC: 128 µg/mL (≈ 284 µM)
[11]; [39]
  MIC: > 128 µg/mL
[12]; [40]
  MIC: > 128 µg/mL
[13]; [41]
  MIC: > 128 µg/mL
[14]; [42]
  MIC: > 128 µg/mL
[15]
  intrinsic antibacterial activity (in words): lack of intrinsic antibacterial activity
[16]; [43]
  MIC: > 128 µg/mL
[17]; [44]
  MIC: > 128 µg/mL
[18]; [45]
  MIC: > 128 µg/mL
[19]; [46]
  MIC: > 128 µg/mL
[20]; [47]
  MIC: > 128 µg/mL
[21]; CIP80, 18 h, read-out: MIC
  MIC: > 128 µg/mL
[26]; Haemophilus influenzae, ATCC49766, 18 h
  MIC: > 128 µg/mL
[22]; CIP5262, 18 h, read-out: MIC
  MIC: 128 µg/mL (≈ 284 µM)
[23]; ATCC35657, 18 h, read-out: MIC
  MIC: > 128 µg/mL
[27]
  MIC: > 128 µg/mL
[24]; [48]
  MIC: > 128 µg/mL
[25]; CIP5933, 18 h, read-out: MIC
  MIC: > 128 µg/mL
[28]
  MIC: > 128 µg/mL
[29]
  MIC: > 128 µg/mL
[30]
  MIC: > 128 µg/mL

## CC(C)(C)OC(=O)NCC(NC(=O)c1cccnc1)c1c[nH]c2ccc(Br)cc12 (stereo not shown) [Compound 10, tert-Butyl (2-(5-bromo-1H-indol-3-yl)-2-(nicotinamido)ethyl) carbamate]
[1]; [31]
  MIC: > 128 µg/mL
[2]; [32]
  MIC: 128 µg/mL (≈ 279 µM)
[3]; [33]
  MIC: 64 µg/mL (≈ 139 µM)
[4]; [34]
  MIC: > 128 µg/mL
[5]; [35]
  MIC: > 128 µg/mL
[6]; [35]
  MIC: > 128 µg/mL
[7]; [36]
  MIC: > 128 µg/mL
[8]; [37]
  MIC: 64 µg/mL (≈ 139 µM)
[9]; [38]
  MIC: 64 µg/mL (≈ 139 µM)
[10]; [35]
  MIC: > 128 µg/mL
[11]; [39]
  MIC: > 128 µg/mL
[12]; [40]
  MIC: > 128 µg/mL
[13]; [41]
  MIC: > 128 µg/mL
[14]; [42]
  MIC: > 128 µg/mL
[15]
  intrinsic antibacterial activity (in words): lack of intrinsic antibacterial activity
[16]; [43]
  MIC: 128 µg/mL (≈ 279 µM)
[17]; [44]
  MIC: 128 µg/mL (≈ 279 µM)
[18]; [45]
  MIC: > 128 µg/mL
[19]; [46]
  MIC: 128 µg/mL (≈ 279 µM)
[20]; [47]
  MIC: > 128 µg/mL
[21]; CIP80, 18 h, read-out: MIC
  MIC: > 128 µg/mL
[26]; ATCC49766, Haemophilus influenzae ATCC 49766, 10% sheep blood, 5% CO2, 18 h, read-out: MIC
  MIC: > 128 µg/mL
[22]; CIP5262, 18 h, read-out: MIC
  MIC: 128 µg/mL (≈ 279 µM)
[23]; ATCC35657, 18 h, read-out: MIC
  MIC: > 128 µg/mL
[27]
  MIC: > 128 µg/mL
[24]; [48]
  MIC: > 128 µg/mL
[25]; CIP5933, 18 h, read-out: MIC
  MIC: > 128 µg/mL
[28]
  MIC: > 128 µg/mL
[29]
  MIC: > 128 µg/mL
[30]
  MIC: 128 µg/mL (≈ 279 µM)

— patent US9676715B2, “Bis-indolic derivatives, a process for preparing the same and their uses as a drug” (UNIVERSITE JOSEPH FOURIER, priority 2011, dated 2017)
